Data published in patent publication US8513272B2, “Forms of a fused pyrrolocarbazole compound” (Cephalon, Inc., priority 2008, dated 2013).
Converted amounts (≈) assume the structure as drawn.

Assay: Solubility of various forms of Compound I in water and pH 1, pH 2 (HCl/KCl) buffers at 25° C., HPLC analysis
Format: physicochemical
Conditions: stirring 300 rpm, saturated solution; for Solubility, pH 1 Buffer: pH 1 HCl/KCl buffer; for Solubility, pH 2 Buffer: pH 2 HCl/KCl buffer
Protocol: Solubility of Various Forms of Compound I in Water and pH1, pH2 Buffers
Solubility was measured by adding 25 mg of the various forms of Compound I or an amount adequate to maintain a saturated solution in water and pH 1, pH 2 (HCl/KCl buffers). Temperature of 25° C. and a stirring rate of 300 rpm were maintained by using a HEL Crystal Scan unit (HEL, UK). Samples were withdrawn at the times indicated, filtered and analyzed by HPLC for Compound I using the method described below.
HPLC Method for Measurement of CEP11981 Content of Solubility Samples
Testing was performed on a calibrated ThermoFinnigan High Performance Liquid Chromatography (HPLC) system designated LC-0410-AD. The system comprises a P4000 pump, AS3000 autosampler, and UV2000 detector. A TCM 2000 temperature control module was used to heat the column. All standard solutions and samples were prepared in Class A glass volumetric flasks and were placed in autosampler vials. Standard weightings were done using a calibrated Mettler analytical balance. The sample preparations were centrifuged using an Eppendorf microcentrifuge. The primary chromatography data was acquired and integrated using ChromQuest software. Microsoft Office Excel 2003 was used for the calculation of results.
Column: MS C18, 150×4.6 mm ID, 3.5μ Waters, m Xterra packing
Column Temperature: 30° C.
Detector: UV/VIS @ 270 nm
Mobile Phase A: 10 mM Ammonium Acetate (aqueous)
Mobile Phase B: 10 mM Ammonium Acetate in sample solvent

Row | Solubility, pH 1 Buffer [mcg/mL] | Solubility, pH 2 Buffer [mcg/mL] | Solubility, Water [µg/mL] | SMILES
1 | 11 | 5 | 20 (≈ 41.9 µM) | CC(C)Cn1c2ccc(Nc3ncccn3)cc2c2c3c(c4c(c21)CCc1nn(C)cc1-4)C(=O)NC3 [pTSA-A2, 11-isobutyl-2-methyl-8-(2-pyrimidinylamino)-2,5,6,11,12,13-hexahydro-4H-indazolo[5,4-a]pyrrolo[3,4-c]carbazol-4-one]
2 | 20000 | 0.04 | <1 | CC(C)Cn1c2ccc(Nc3ncccn3)cc2c2c3c(c4c(c21)CCc1nn(C)cc1-4)C(=O)NC3 [AS, 11-isobutyl-2-methyl-8-(2-pyrimidinylamino)-2,5,6,11,12,13-hexahydro-4H-indazolo[5,4-a]pyrrolo[3,4-c]carbazol-4-one]
3 | 23 | 0.3 | <1 | CC(C)Cn1c2ccc(Nc3ncccn3)cc2c2c3c(c4c(c21)CCc1nn(C)cc1-4)C(=O)NC3 [pTSA-A1, 11-isobutyl-2-methyl-8-(2-pyrimidinylamino)-2,5,6,11,12,13-hexahydro-4H-indazolo[5,4-a]pyrrolo[3,4-c]carbazol-4-one]
